Source: patent US12370183B2, “Compositions and methods for treating malaria” (Rutgers, The State University of New Jersey, priority 2020, dated 2025)
Like-named read-outs stand apart in the source and are kept apart here.

What was measured:
[1] = tested on: 3D7 strain of Plasmodium falciparum; experiment: Potency in the 3D7 strain of Plasmodium falciparum (EC50); format: cell-based; details: Plasmodium falciparum
Text: The present invention relates to methods of treating malaria with tetrahydrobenzonaphtyridine carboxanilide (TBN) derivatives and related pyrrolinones and hydrolysis products thereof. These compounds are active against Plasmodium falciparum strains that are resistant to multiple drugs currently on the market. The present invention further relates to novel compounds and pharmaceutical compositions comprising such compounds. The compounds have been synthesized and tested for their potency in the 3D7 strain of Plasmodium falciparum. Their cytotoxicity was also tested in the BJ human fibroblast line. No compounds show significant cytotoxicity.
(§1) A high-throughput screen performed against the Plasmodium parasite. About 8,000 compounds were screened. Each hit was tested against resistant P. falciparum variants K1, V1S, D10DD, ATP4 1247, and C2B. Potency against these assays assured that the chemotype acts through a mechanism distinct from that of halofantrine, chloroquine, mefloquine, pyrimethamine, proguanil, atovaquone, and (+)SJ733. The toxicity of the compounds was also measured by testing their lethality against a BJ cell line (human fibroblasts). No TBNs were toxic. A structure activity investigation was performed in order to improve the EC50 of the TBNs to the single-digit nanomolar range, as well as to increase the water solubility.
(§2) Substituents were installed at N−2 by using a variety of methods. Reductive alkylation (Abdel-Magid, A. F.; Mehrman, S. J. A Review on the Use of Sodium Triacetoxyborohydride in the Reductive Amination of Ketones and Aldehydes. Org. Process Res. Dev. 2006, 10 (5), 971-1031) was a dependable technique that produced over fifteen analogues. Conjugate additions and nucleophilic substitutions provided most of the others. A type of reductive alkylation that uses carboxylic acids instead of aldehydes (the Beller reduction) led to two analogues (Sorribes, I.; Junge, K.; Beller, M. Direct Catalytic N-Alkylation of Amines with Carboxylic Acids. J. Am. Chem. Soc. 2014, 136 (40), 14314-14319. Some of the compounds listed were synthesized through other means, or were derived from other TBNs. Compounds 66 and 128 were produced by the amidation of acids 132 and 133, which had the corresponding substitution already installed. TBNs 93, and 94 were produced from the Pfitzinger products formed from the condensation of isatin with (R)-1-(1-phenylethyl)piperidin-4-one (134) and (S)-1-(1-phenylethyl)piperidin-4-one (135), respectively.

[2] = tested on: resistant P. falciparum variant K1; experiment: Potency against resistant P. falciparum variant K1 (EC50); format: cell-based; details: Plasmodium falciparum, K1, read-out: K1 EC50 (μM)
Method: as §1, §2

[3] = 3D7, read-out: 3D7 Mean EC50 (μM)

Structure (SMILES): O=C(Nc1ccc(F)c(F)c1)c1c2c(nc3ccccc13)CCNC2 [Compound 88, N-(3,4-Difluorophenyl)-1,2,3,4-tetrahydrobenzo[b][1,6]naphthyridine-10-carboxamide]
- EC50 [1, 3]: 10.3 ± 10.2 µM

Structure (SMILES): CC(C)(C)OC(=O)N1CCC(N2CCc3nc4ccccc4c(C(=O)Nc4ccc(F)c(F)c4)c3C2)CC1 [Compound 89, tert-Butyl 4-(10-((3,4-difluorophenyl)carbamoyl)-3,4-dihydrobenzo[b][1,6]naphthyridin-2(1H)-yl)piperidine-1-carboxylate]
- EC50 [1, 3]: 0.0257 ± 0.00583 µM

Structure (SMILES): O=C(Nc1ccc(F)c(F)c1)c1c2c(nc3ccccc13)CCN(CCc1ccccc1)C2 [Compound 91, N-(3,4-Difluorophenyl)-2-phenethyl-1,2,3,4-tetrahydrobenzo[b][1,6]naphthyridine-10-carboxamide]
- EC50 [2]: 0.0839 µM
- EC50 [1, 3]: 0.117 ± 0.102 µM

Structure (SMILES): C[C@H](c1ccccc1)N1CCc2nc3ccccc3c(C(=O)Nc3ccc(F)c(F)c3)c2C1 [Compound 93, (R)—N-(3,4-Difluorophenyl)-2-(1-phenylethyl)-1,2,3,4-tetrahydrobenzo[b][1,6]naphthyridine-10-carboxamide]
- EC50 [2]: 0.064 µM
- EC50 [1, 3]: 0.131 ± 0.00623 µM

Structure (SMILES): C[C@@H](c1ccccc1)N1CCc2nc3ccccc3c(C(=O)Nc3ccc(F)c(F)c3)c2C1 [Compound 94, (S)—N-(3,4-Difluorophenyl)-2-(1-phenylethyl)-1,2,3,4-tetrahydrobenzo[b][1,6]naphthyridine-10-carboxamide]
- EC50 [2]: 0.148 µM
- EC50 [1, 3]: 0.154 ± 0.0285 µM

Structure (SMILES): CC(C)CN1CCc2nc3ccccc3c(C(=O)Nc3ccc(F)c(F)c3)c2C1 [Compound 95, N-(3,4-Difluorophenyl)-2-isobutyl-1,2,3,4-tetrahydrobenzo[b][1,6]naphthyridine-10-carboxamide]
- EC50 [2]: 0.121 µM
- EC50 [1, 3]: 0.154 ± 0.162 µM

Structure (SMILES): CC(C)N1CCc2nc3ccccc3c(C(=O)Nc3ccc(F)c(F)c3)c2C1 [Compound 96, N-(3,4-Difluorophenyl)-2-isopropyl-1,2,3,4-tetrahydrobenzo[b][1,6]naphthyridine-10-carboxamide]
- EC50 [2]: 0.177 µM
- EC50 [1, 3]: 0.215 ± 0.269 µM

Structure (SMILES): COC(=O)C(C)CN1CCc2nc3ccccc3c(C(=O)Nc3ccc(F)c(F)c3)c2C1 (stereo not drawn) [Compound 97, Methyl 3-(10-((3,4-difluorophenyl)carbamoyl)-3,4-dihydrobenzo[b][1,6]naphthyridin-2(1H)-yl)-2-methylpropanoate]
- EC50 [2]: 0.185 µM
- EC50 [1, 3]: 0.328 ± 0.17 µM

Structure (SMILES): O=C(Nc1ccc(F)c(F)c1)c1c2c(nc3ccccc13)CCN(CCc1ccccn1)C2 [Compound 98, N-(3,4-Difluorophenyl)-2-(2-(pyridin-2-yl)ethyl)-1,2,3,4-tetrahydrobenzo[b][1,6]naphthyridine-10-carboxamide]
- EC50 [1, 3]: 0.329 ± 0.0232 µM

Structure (SMILES): CCCCN1CCc2nc3ccccc3c(C(=O)Nc3ccc(F)c(F)c3)c2C1 [Compound 99, 2-Butyl-N-(3,4-difluorophenyl)-1,2,3,4-tetrahydrobenzo[b][1,6]naphthyridine-10-carboxamide]
- EC50 [2]: 0.102 µM
- EC50 [1, 3]: 0.37 ± 0.376 µM

Structure (SMILES): O=C(Nc1ccc(F)c(F)c1)c1c2c(nc3ccccc13)CCN(Cc1cccc(F)c1)C2 [Compound 100, N-(3,4-Difluorophenyl)-2-(3-fluorobenzyl)-1,2,3,4-tetrahydrobenzo[b][1,6]naphthyridine-10-carboxamide]
- EC50 [2]: 0.161 µM
- EC50 [1, 3]: 0.412 ± 0.291 µM

Structure (SMILES): O=C(Nc1ccc(F)c(F)c1)c1c2c(nc3ccccc13)CCN(CC1CC1)C2 [Compound 101, 2-(Cyclopropylmethyl)-N-(3,4-difluorophenyl)-1,2,3,4-tetrahydrobenzo[b][1,6]naphthyridine-10-carboxamide]
- EC50 [2]: 0.272 µM
- EC50 [1, 3]: 0.429 ± 0.303 µM

Structure (SMILES): O=C(Nc1ccc(F)c(F)c1)c1c2c(nc3ccccc13)CCN(CCOC1CCCCO1)C2 (stereo not drawn) [Compound 102, N-(3,4-Difluorophenyl)-2-(2-((tetrahydro-2H-pyran-2-yl)oxy)ethyl)-1,2,3,4-tetrahydrobenzo[b][1,6]naphthyridine-10-carboxamide]
- EC50 [2]: 0.178 ± 0.0436 µM
- EC50 [1, 3]: 0.441 ± 0.156 µM

Structure (SMILES): Cn1ccc(CN2CCc3nc4ccccc4c(C(=O)Nc4ccc(F)c(F)c4)c3C2)n1 [Compound 114, N-(3,4-Difluorophenyl)-2-((1-methyl-1H-pyrazol-3-yl)methyl)-1,2,3,4-tetrahydrobenzo[b][1,6]naphthyridine-10-carboxamide]
- EC50 [1, 3]: 1.89 ± 0.817 µM

Structure (SMILES): O=C(Nc1ccc(F)c(F)c1)c1c2c(nc3ccccc13)CCN(Cc1cncc(F)c1)C2 [Compound 115, N-(3,4-Difluorophenyl)-2-((5-fluoropyridin-3-yl)methyl)-1,2,3,4-tetrahydrobenzo[b][1,6]naphthyridine-10-carboxamide]
- EC50 [1, 3]: 1.96 ± 2.34 µM

Structure (SMILES): Cn1cnc(CN2CCc3nc4ccccc4c(C(=O)Nc4ccc(F)c(F)c4)c3C2)c1 [Compound 117, N-(3,4-Difluorophenyl)-2-((1-methyl-1H-imidazol-4-yl)methyl)-1,2,3,4-tetrahydrobenzo[b][1,6]naphthyridine-10-carboxamide]
- EC50 [1, 3]: 2.4 ± 1.39 µM

Structure (SMILES): O=C(Nc1ccc(F)c(F)c1)c1c2c(nc3ccccc13)CCN(Cc1ncccc1F)C2 [Compound 118, N-(3,4-difluorophenyl)-2-((3-fluoropyridin-2-yl)methyl)-1,2,3,4-tetrahydrobenzo[b][1,6]naphthyridine-10-carboxamide]
- EC50 [1, 3]: 3.41 ± 2.9 µM

Structure (SMILES): CCOCC(=O)N1CCc2nc3ccccc3c(C(=O)Nc3ccc(F)c(F)c3)c2C1 [Compound 119, N-(3,4-Difluorophenyl)-2-(2-ethoxyacetyl)-1,2,3,4-tetrahydrobenzo[b][1,6]naphthyridine-10-carboxamide]
- EC50 [1, 3]: 3.49 ± 0.831 µM

Structure (SMILES): O=C(Nc1ccc(F)c(F)c1)c1c2c(nc3ccccc13)CCN(CCN1C(=O)c3ccccc3C1=O)C2 [Compound 121, N-(3,4-Difluorophenyl)-2-(2-(1,3-dioxoisoindolin-2-yl)ethyl)-1,2,3,4-tetrahydrobenzo[b][1,6]naphthyridine-10-carboxamide]
- EC50 [1, 3]: 3.95 ± 1.07 µM

Structure (SMILES): O=C(Nc1ccc(F)c(F)c1)c1c2c(nc3ccccc13)CCN(CC(F)(F)F)C2 [Compound 123, N-(3,4-Difluorophenyl)-2-(2,2,2-trifluoroethyl)-1,2,3,4-tetrahydrobenzo[b][1,6]naphthyridine-10-carboxamide]
- EC50 [1, 3]: 7.69 ± 8.61 µM

Structure (SMILES): COC(=O)CN1CCc2nc3ccccc3c(C(=O)Nc3ccc(F)c(F)c3)c2C1 [Compound 125, Methyl 2-(10-((3,4-difluorophenyl)carbamoyl)-3,4-dihydrobenzo[b][1,6]naphthyridin-2(1H)-yl)acetate]
- EC50 [1, 3]: 9.11 ± 7.61 µM

Structure (SMILES): Cn1ccnc1CN1CCc2nc3ccccc3c(C(=O)Nc3ccc(F)c(F)c3)c2C1 [Compound 127, N-(3,4-Difluorophenyl)-2-((1-methyl-1H-imidazol-2-yl)methyl)-1,2,3,4-tetrahydrobenzo[b][1,6]naphthyridine-10-carboxamide]
- EC50 [1, 3]: 10.1 ± 6.39 µM

Structure (SMILES): CCN1CCc2nc3ccccc3c(C(=O)Nc3ccc(F)c(F)c3)c2C1 [Compound 128, N-(3,4-Difluorophenyl)-2-ethyl-1,2,3,4-tetrahydrobenzo[b][1,6]naphthyridine-10-carboxamide]
- EC50 [1, 3]: > 12.2 µM

Structure (SMILES): CS(=O)(=O)CCN1CCc2nc3ccccc3c(C(=O)Nc3ccc(F)c(F)c3)c2C1 [Compound 130, N-(3,4-Difluorophenyl)-2-(2-(methylsulfonyl)ethyl)-1,2,3,4-tetrahydrobenzo[b][1,6]naphthyridine-10-carboxamide]
- EC50 [1, 3]: > 14.7 µM

Structure (SMILES): CC(=O)O[C@H]1CO[C@H]2[C@@H]1OC[C@@H]2Oc1cccc(NC(=O)c2c3c(nc4ccccc24)CCN(CCc2ccccc2)C3)c1 [Compound 147, (3S,3aR,6S,6aR)-6-(3-(2-Phenethyl-1,2,3,4-tetrahydrobenzo[b][1,6]naphthyridine-10-carboxamido)phenoxy)hexahydrofuro[3,2-b]furan-3-yl acetate]
- EC50 ([1]; 3D7, read-out: potency (EC50)): 3.87 µM

Structure (SMILES): O=C(Nc1ccc(F)c(F)c1)c1c2c(nc3cc(Cl)ccc13)CCN(CCc1ccccc1)C2 [Compound 157, 7-Chloro-N-(3,4-difluorophenyl)-2-phenethyl-1,2,3,4-tetrahydrobenzo[b][1,6]naphthyridine-10-carboxamide]
- EC50 [1, 3]: 0.0179 ± 0.01 µM

Structure (SMILES): O=C(Nc1ccc(F)c(F)c1)c1c2c(nc3ccc(Cl)cc13)CCN(CCc1ccccc1)C2 [Compound 158, 8-Chloro-N-(3,4-difluorophenyl)-2-phenethyl-1,2,3,4-tetrahydrobenzo[b][1,6]naphthyridine-10-carboxamide]
- EC50 [1, 3]: 0.0153 ± 0.00774 µM

Structure (SMILES): O=C1c2c3c(nc4cc(Cl)ccc24)CCN(CCc2ccccc2)C3N1c1ccc(F)c(F)c1 (stereo not drawn) [Compound 172, 8-Chloro-2-(3,4-difluorophenyl)-3-phenethyl-2a,3,4,5-tetrahydrobenzo[b]pyrrolo[4,3,2-de][1,6]naphthyridin-1(2H)-one]
- EC50 ([1]; 3D7): 0.0071 µM
- EC50 [1, 3]: 0.0071 ± 0.000461 µM
